# Reference: ChEMBL document CHEMBL1201862, “PubChem BioAssay data set” (2004)
#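 These data come from cells grown in 96-well plates and exposed to compound for 48 hours at five concentrations. GI50 = concentration required for 50% inhibition of growth.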 Calls of active or inactive are those of the source. Rule as the data show it: active = GI50 up to about 1.1 µM and inactive = higher.
# What was measured:
# Assay in all cases: NCI-60 cell line screen, 48 h
# 786-0 = test system: 786-0
# A498 = test system: A498
# A549 = test system: A549
# ACHN = test system: ACHN
# CAKI-1 = test system: CAKI-1
# COLO 205 = test system: COLO 205
# DMS-114 = test system: DMS-114
# DMS-273 = test system: DMS-273
# EKVX = test system: EKVX
# HCC 2998 = test system: HCC 2998
# HCT-15 = test system: HCT-15
# HOP-18 = test system: HOP-18
# HOP-62 = test system: HOP-62
# HT-29 = test system: HT-29
# IGROV-1 = test system: IGROV-1
# KM12 = test system: KM12
# LOX IMVI = test system: LOX IMVI
# LXFL 529 = test system: LXFL 529
# M14 = test system: M14
# M19-MEL = test system: M19-MEL
# MOLT-4 = test system: MOLT-4
# Malme-3M = test system: Malme-3M
# NCI-H226 = test system: NCI-H226
# NCI-H23 = test system: NCI-H23
# NCI-H522 = test system: NCI-H522
# OVCAR-3 = test system: OVCAR-3
# OVCAR-4 = test system: OVCAR-4
# OVCAR-5 = test system: OVCAR-5
# OVCAR-8 = test system: OVCAR-8
# RPMI-8226 = test system: RPMI-8226
# RXF 393 = test system: RXF 393
# SF-268 = test system: SF-268
# SF-295 = test system: SF-295
# SF-539 = test system: SF-539
# SK-MEL-28 = test system: SK-MEL-28
# SK-MEL-2 = test system: SK-MEL-2
# SK-MEL-5 = test system: SK-MEL-5
# SK-OV-3 = test system: SK-OV-3
# SN12C = test system: SN12C
# SNB-75 = test system: SNB-75
# SNB-78 = test system: SNB-78
# SW-620 = test system: SW-620
# TK-10 = test system: TK-10
# U-251 = test system: U-251
# UACC-257 = test system: UACC-257
# UACC-62 = test system: UACC-62
# UO-31 = test system: UO-31
# XF498 = test system: XF498
# CCRF-CEM = test system: CCRF-CEM
# DLD-1 = test system: DLD-1
# HCT-116 = test system: HCT-116
# HL-60 = test system: HL-60
# HOP-92 = test system: HOP-92
# K562 = test system: K562
# KM-20L2 = test system: KM-20L2
# NCI-H460 = test system: NCI-H460
# SNB-19 = test system: SNB-19
# SR = test system: SR
smiles,measurement,setting,value
Cc1cc(N(CCC#N)CCC#N)ccc1/N=N/c1ccc(C(=O)O)cc1,GI50,786-0,> 100 µM (inactive)
same,GI50,A498,> 100 µM (inactive)
same,GI50,A549,> 100 µM (inactive)
same,GI50,ACHN,> 100 µM (inactive)
same,GI50,CAKI-1,> 100 µM (inactive)
same,GI50,COLO 205,> 100 µM (inactive)
same,GI50,DMS-114,> 100 µM (inactive)
same,GI50,DMS-273,> 100 µM (inactive)
same,GI50,EKVX,> 100 µM (inactive)
same,GI50,HCC 2998,> 100 µM (inactive)
same,GI50,HCT-15,> 100 µM
same,GI50,HOP-18,58.9 µM (inactive)
same,GI50,HOP-62,61 µM (inactive)
same,GI50,HT-29,> 100 µM (inactive)
same,GI50,IGROV-1,> 100 µM (inactive)
same,GI50,KM12,> 100 µM (inactive)
same,GI50,LOX IMVI,> 100 µM (inactive)
same,GI50,LXFL 529,> 100 µM (inactive)
same,GI50,M14,> 100 µM (inactive)
same,GI50,M19-MEL,> 100 µM (inactive)
same,GI50,MOLT-4,> 100 µM (inactive)
same,GI50,Malme-3M,> 100 µM (inactive)
same,GI50,NCI-H226,> 100 µM (inactive)
same,GI50,NCI-H23,> 100 µM (inactive)
same,GI50,NCI-H522,> 100 µM (inactive)
same,GI50,OVCAR-3,> 100 µM (inactive)
same,GI50,OVCAR-4,> 100 µM (inactive)
same,GI50,OVCAR-5,> 100 µM (inactive)
same,GI50,OVCAR-8,> 100 µM (inactive)
same,GI50,RPMI-8226,99.3 µM (inactive)
same,GI50,RXF 393,> 100 µM (inactive)
same,GI50,SF-268,> 100 µM (inactive)
same,GI50,SF-295,> 100 µM (inactive)
same,GI50,SF-539,> 100 µM (inactive)
same,GI50,SK-MEL-28,> 100 µM (inactive)
same,GI50,SK-MEL-2,> 100 µM (inactive)
same,GI50,SK-MEL-5,> 100 µM (inactive)
same,GI50,SK-OV-3,> 100 µM (inactive)
same,GI50,SN12C,> 100 µM (inactive)
same,GI50,SNB-75,36.7 µM (inactive)
same,GI50,SNB-78,> 100 µM (inactive)
same,GI50,SW-620,> 100 µM (inactive)
same,GI50,TK-10,> 100 µM (inactive)
same,GI50,U-251,> 100 µM (inactive)
same,GI50,UACC-257,> 100 µM (inactive)
same,GI50,UACC-62,> 100 µM (inactive)
same,GI50,UO-31,77.6 µM (inactive)
same,GI50,XF498,> 100 µM (inactive)
Cc1cc(NS(=O)(=O)c2ccc(NC(=O)c3cccc4c(=O)c5ccccc5[nH]c34)cc2)no1,GI50,786-0,10.2 µM (inactive)
same,GI50,A498,28.8 µM (inactive)
same,GI50,A549,> 100 µM (inactive)
same,GI50,ACHN,65.6 µM (inactive)
same,GI50,CAKI-1,65.8 µM (inactive)
same,GI50,CCRF-CEM,32.6 µM (inactive)
same,GI50,COLO 205,50.5 µM (inactive)
same,GI50,DLD-1,61.4 µM (inactive)
same,GI50,DMS-114,46 µM (inactive)
same,GI50,EKVX,43.6 µM (inactive)
same,GI50,HCC 2998,36.5 µM (inactive)
same,GI50,HCT-116,36.9 µM (inactive)
same,GI50,HCT-15,66.7 µM
same,GI50,HL-60,30.9 µM (inactive)
same,GI50,HOP-18,10.2 µM (inactive)
same,GI50,HOP-62,21.6 µM (inactive)
same,GI50,HOP-92,29.5 µM (inactive)
same,GI50,HT-29,43.1 µM (inactive)
same,GI50,IGROV-1,40.5 µM (inactive)
same,GI50,K562,36.1 µM (inactive)
same,GI50,KM-20L2,> 100 µM (inactive)
same,GI50,KM12,78.3 µM (inactive)
same,GI50,LOX IMVI,31.4 µM (inactive)
same,GI50,LXFL 529,15.7 µM (inactive)
same,GI50,M19-MEL,39.4 µM (inactive)
same,GI50,MOLT-4,39.4 µM (inactive)
same,GI50,Malme-3M,63.1 µM (inactive)
same,GI50,NCI-H226,41.9 µM (inactive)
same,GI50,NCI-H23,60.7 µM (inactive)
same,GI50,NCI-H460,93.3 µM (inactive)
same,GI50,NCI-H522,14.2 µM (inactive)
same,GI50,OVCAR-3,29.4 µM (inactive)
same,GI50,OVCAR-4,51.6 µM (inactive)
same,GI50,OVCAR-5,94.6 µM (inactive)
same,GI50,OVCAR-8,12.5 µM (inactive)
same,GI50,RPMI-8226,33.8 µM (inactive)
same,GI50,SF-268,30.5 µM (inactive)
same,GI50,SF-295,> 10 µM (inactive)
same,GI50,SF-539,28.9 µM (inactive)
same,GI50,SK-MEL-28,41.2 µM (inactive)
same,GI50,SK-MEL-2,34.7 µM (inactive)
same,GI50,SK-MEL-5,40.8 µM (inactive)
same,GI50,SK-OV-3,14.9 µM (inactive)
same,GI50,SN12C,44.1 µM (inactive)
same,GI50,SNB-19,36.2 µM (inactive)
same,GI50,SNB-75,23.1 µM (inactive)
same,GI50,SNB-78,38.7 µM (inactive)
same,GI50,SR,28.2 µM (inactive)
same,GI50,SW-620,55.6 µM (inactive)
same,GI50,TK-10,40.2 µM (inactive)
same,GI50,U-251,29.9 µM (inactive)
same,GI50,UACC-257,87.7 µM (inactive)
same,GI50,UACC-62,26.1 µM (inactive)
same,GI50,UO-31,15.7 µM (inactive)
same,GI50,XF498,13.6 µM (inactive)
